Data: patent US4450269A, “Mono-5-substituted-3-chloro-4H-1,2,6-thiadiazin-4-one antifungal agents” (FMC Corporation, priority 1980, dated 1984)

Key:
Assay type in all cases: cell-based
Botrytis cinerea = test: Spore germination test; details: BC, 48 hours
Procedure, shortened: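 Compound was delivered in acetone into water agar at final 40, 10, 2.5 and 1 ppm. Alternaria solani and Botrytis cinerea spores were applied as sterile-water suspensions, while Erysiphe polygoni and Uromyces phaseoli spores were brushed on from infected leaves. After 48 h at 24° C., percentage germination was converted to a rating.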

Pythium ultimum = test: Mycelial growth test; details: Globisporangium ultimum, 72 h, PU, read-out: Percent Fungus Growth Inhibition
Cladosporium cucumerinum = test: Spore germination test; details: CC, 48 hours
Procedure, shortened: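 Compound in acetone mixed into water agar at 40, 10, 2.5 and 1 ppm; plates seeded with spore suspension and incubated 48 hours at 24 °C. Percentage germinated spores counted and converted into a germination rating.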

Row | SMILES | Spore Germination Rating (Botrytis cinerea; 1.0 ppm) | Spore Germination Rating (Botrytis cinerea; 2.5 ppm) | Spore Germination Rating (Botrytis cinerea; 10 ppm) | Spore Germination Rating (Botrytis cinerea; 40 ppm) | inhibition at 5 ppm (Pythium ultimum) [%] | inhibition at 10 ppm (Pythium ultimum) [%] | inhibition at 20 ppm (Pythium ultimum) [%] | inhibition at 40 ppm (Pythium ultimum) [%] | Spore Germination Rating (Cladosporium cucumerinum; 1.0 ppm) | Spore Germination Rating (Cladosporium cucumerinum; 2.5 ppm) | Spore Germination Rating (Cladosporium cucumerinum; 10 ppm) | Spore Germination Rating (Cladosporium cucumerinum; 40 ppm)
1 | O=C(Nc1ccccc1)Nc1ccc(Oc2nsnc(Cl)c2=O)cc1 [Compound 29, 3-chloro-5-[4-(3-phenylureido)-phenoxy]-4H--1,2,6-thiadiazin-4-one] | 3 (60-80) | 3 (60-80) | 2 (40-60) | 2 (40-60) | 0 | 0 | 0 | 0 | 2 (40-60) | 2 (40-60) | 2 (40-60) | 1 (10-40)
2 | O=c1c(Cl)nsnc1Oc1c(Cl)cc(Cl)cc1Cl [Compound 30, 3-chloro-5-(2,4,6-trichlorophenoxy)-4H--1,2,6-thiadiazin-4-one] | 0 (0-10) | 0 (0-10) | 0 (0-10) | 0 (0-10) | 20 | 71 | 96 | 100 | 0 (0-10) | 0 (0-10) | 0 (0-10) | 0 (0-10)
3 | O=c1c(Cl)nsnc1Oc1c(Cl)c(Cl)c(Cl)c(Cl)c1Cl [Compound 31, 3-chloro-5-(pentachlorophenoxy)-4H--1,2,6-thiadiazine-4-one] | 1 (10-40) | 1 (10-40) | 1 (10-40) | 0 (0-10) | 0 | 0 | 0 | 0 | 0 (0-10) | 0 (0-10) | 0 (0-10) | 0 (0-10)
4 | O=c1c(Cl)nsnc1Oc1cccc2ccccc12 [Compound 32, 3-chloro-5(1-naphthoxy)-4H-1,2,6-thiadiazin-4-one] | 2 (40-60) | 0 (0-10) | 0 (0-10) | 0 (0-10) | 73 | 73 | 100 | 100 | 0 (0-10) | 0 (0-10) | 0 (0-10) | 0 (0-10)
5 | O=c1c(Cl)nsnc1Oc1ccccc1Br [Compound 34, 3-chloro-5-(2-bromophenoxy)-4H-1,2,6,-thiadiazin-4-one] | 2 (40-60) | 0 (0-10) | 0 (0-10) | 0 (0-10) | 0 | 64 | 87 | 100 | 1 (10-40) | 0 (0-10) | 0 (0-10) | 0 (0-10)
6 | O=c1c(Cl)nsnc1Oc1ccc(O)cc1 [Compound 35, 3-chloro-5-(4-hydroxyphenoxy)-4H-1,2,6-thiadiazin-4-one] | 4 (80-100) | 4 (80-100) | 4 (80-100) | 3 (60-80) | 0 | 11 | 100 | 100 | 4 (80-100) | 0 (0-10) | 3 (60-80) | 0 (0-10)
7 | O=C(Nc1ccccc1)Oc1ccc(Oc2nsnc(Cl)c2=O)cc1 [Compound 37, 3-chloro-5-[4-(phenylaminocarbonyloxy)phenoxy]-4H-1,2,6,-thiadiazin-4-one] | 4 (80-100) | 4 (80-100) | 4 (80-100) | 4 (80-100) | 100 | 0 | 20 | 100 | 0 (0-10) | 1 (10-40) | 0 (0-10) | 0 (0-10)
8 | O=C(OCc1ccccc1)Oc1ccc(Oc2nsnc(Cl)c2=O)cc1 [Compound 38, 3-chloro-5-[4-(phenylmethoxycarbonyloxy)phenoxyl]-4H-1,2,6-thiadiazin-4-one] | 4 (80-100) | 4 (80-100) | 4 (80-100) | 3 (60-80) | 0 | 0 | 0 | 0 | 4 (80-100) | 4 (80-100) | 3 (60-80) | 3 (60-80)
9 | C[S+]([O-])c1ccc(Oc2nsnc(Cl)c2=O)cc1 (stereo not drawn) [Compound 40, 3-chloro-5-[(4-methylsulfinyl)phenoxy]-4H-1,2,6,-thiadiazin-4-one] | 4 (80-100) | 4 (80-100) | 4 (80-100) | 3 (60-80) | 0 | 100 | 100 | 100 | 4 (80-100) | 0 (0-10) | 0 (0-10) | 0 (0-10)
